The text below walks through data of article PMC5738391, “Three classes of ligands each bind to distinct sites on the orphan G protein-coupled receptor GPR84” (Scientific Reports, 2017).

The target of data set [1] is T1, Arg^172Ala GPR84-Cys^352Ile Gαi2 fusion protein (Homo sapiens, UniProt Q9NQS5, R172A).
T1 construct: Cys352Ile Gαi2 (fusion partner, same polypeptide); expressed in transfected cells; host or cells: membranes of Flp-In T-REx 293 cells, doxycycline-induced
The experiment in a line: [35S]GTPγS binding, Arg172Ala mutant fusion protein. Format: biochemical. From the text: To try to identify how a MCFA might interact with GPR84 we turned to homology modelling studies. Although GPR84 is not closely related to the other GPCRs that respond to either short chain (FFA2, FFA3) or long chain (FFA1, FFA4) fatty acids[8],[9], in each of the other cases the carboxylate of the fatty acid is co-ordinated by one or more arginine residues located at or near the extracellular surface[12]–[14]. […] As we have highlighted recently[9] GPR84 and the β2-adrenoceptor are only distantly related whilst, of the currently available atomic level GPCR structures, the orexin OX1 receptor[34] has highest overall sequence identity (31%) with GPR84. We, therefore, generated and employed a new homology model of GPR84 based on the transmembrane domain architecture of the OX1 receptor (Fig. 6). However, because ECL2 of GPR84 is very similar in sequence to that of rhodopsin (Fig. 6a), with 43% residue identity over this region, we incorporated this knowledge into the modelling process. In the resulting hybrid model (Fig. 6a) Arg^172 within ECL2 is pointing into the potential binding cavity within the helical bundle. This was not the case when Nikaido et al.,[3] employed the β2-adrenoceptor-based model, probably because the ECL2 sequences of the β2-adrenoceptor and GPR84 have no relatedness. […] To assess this we mutated Arg^172 to Ala within the setting of the GPR84-Cys^352Ile Gαi2 fusion protein. […] Equivalent results were obtained in studies in which the Arg^172Ala mutation was introduced into the FLAG-hGPR84-eYFP construct (Fig. 7b).
FLAG-humanGPR84-Gαi2 fusion proteins were constructed by replacing eYFP within the FLAG-humanGPR84-eYFP-pcDNA5/FRT/TO construct with sequence corresponding to Gαi2 or Cys^352Ile Gαi2 using NotI and XhoI restriction enzymes. Site-directed mutagenesis to generate point mutants of GPR84 was performed according to the QuikChange method (Stratagene, Cheshire, UK). The identity of all constructs was verified by nucleotide sequencing.
(§1) Initially, 5 μg of generated membrane protein was pre-incubated for 15 min at 25 °C in assay buffer (20 mM HEPES, 5 mM MgCl2; 160 mM NaCl; 1 μM GDP; 0.05% fatty acid-free bovine serum albumin; pH 7.5) containing the indicated ligand concentrations. […] The reaction was then initiated with addition of [^35S]GTPγS (50 nCi per tube), and the reaction was terminated after 45 minutes incubation at 30 °C by rapid filtration through GF/C glass filters using a 24-well Brandel cell harvester (Alpha Biotech, Glasgow, UK). Unbound radioligand was removed from filters by three washes with ice-cold phosphate buffered saline (pH 7.4) and filters were dried for 2–3 h at room temperature. Dried filters were added to 3 mL of Ultima Gold^TM XR (PerkinElmer Life Sciences, Beaconsfield, UK) and [^35S]GTPγS binding was determined by liquid scintillation spectrometry.

Data set [2] concerns the target T2, human GPR84 (FLAG-hGPR84-eYFP) (Homo sapiens, UniProt Q9NQS5).
T2 construct: expressed in transfected cells
The data set is described as follows: HTRF-based cAMP inhibition assay in Flp-In T-REx 293 cells expressing FLAG-hGPR84-eYFP. The note with it: 100 μM of each MCFA. Format: cell-based. How it is done:
For the assay cells were plated at 5000 cells/well in low-volume 384-well plates. The ability of agonists to inhibit 1 μM forskolin-induced cAMP production was assessed following a co-incubation for 30 min with agonist compounds.

Data set [3] has as its target T3, Arg^172Lys GPR84-Cys^352Ile Gαi2 fusion protein (Homo sapiens, UniProt Q9NQS5, R172K).
T3 construct: Cys352Ile Gαi2 (fusion partner, same polypeptide); expressed in transfected cells; host or cells: membranes of Flp-In T-REx 293 cells, doxycycline-induced
The experiment in a line: [35S]GTPγS binding, Arg172Lys mutant fusion protein. The data set is classed as biochemical.

Details of data set [4]: method as in PMID 17164373. The following applies: cited from earlier work.
Data set [5] has as its system GPR84-Gαi2 fusion protein. The experiment in a line: [35S]GTPγS binding, membranes expressing GPR84-Gαi2 fusion protein. Format: biochemical, human. The following applies: wild type GPR84-Gαi2 fusion, pertussis toxin 24 h.
Text: The only previous study[3] designed to explore the mode of binding of ligands to GPR84 employed a fusion protein[31],[32] in which the G protein Gαi1 was linked in-frame to the C-terminal tail of GPR84. […] These studies indicate that following pertussis toxin treatment of cells expressing the GPR84-Cys^352Ile Gαi2 fusion protein all agonist-induced binding of [^35S]GTPγS reflects incorporation of nucleotide into the receptor-linked G protein α subunit.
Membranes were generated from Flp-In T-REx HEK293 cells treated with 100 ng/mL doxycycline to induce expression of the receptor construct of interest. Cells were washed with ice-cold phosphate-buffered saline, removed from dishes by scraping and centrifuged at 3000 rpm for 5 min at 4 °C. Pellets were resuspended in TE buffer (10 mM Tris-HCl, 0.1 mM EDTA; pH 7.5) containing a protease inhibitor mixture (Roche Applied Science, West Sussex, UK) and homogenized with a 5 ml hand-held homogenizer. This material was centrifuged at 1500 rpm for 5 min at 4 °C and the supernatant was further centrifuged at 50000 rpm for 45 min at 4 °C. The resulting pellet was resuspended in TE buffer and protein content was assessed using a BCA protein assay kit (Pierce, Fisher Scientific, Loughborough, UK).
as §1

Where [6] appears, read: oral dosing to women of up to 1000 mg of indole-3-carbinol.

Structures are written as SMILES.

T3 sequence (Q9NQS5 2-396 R172K): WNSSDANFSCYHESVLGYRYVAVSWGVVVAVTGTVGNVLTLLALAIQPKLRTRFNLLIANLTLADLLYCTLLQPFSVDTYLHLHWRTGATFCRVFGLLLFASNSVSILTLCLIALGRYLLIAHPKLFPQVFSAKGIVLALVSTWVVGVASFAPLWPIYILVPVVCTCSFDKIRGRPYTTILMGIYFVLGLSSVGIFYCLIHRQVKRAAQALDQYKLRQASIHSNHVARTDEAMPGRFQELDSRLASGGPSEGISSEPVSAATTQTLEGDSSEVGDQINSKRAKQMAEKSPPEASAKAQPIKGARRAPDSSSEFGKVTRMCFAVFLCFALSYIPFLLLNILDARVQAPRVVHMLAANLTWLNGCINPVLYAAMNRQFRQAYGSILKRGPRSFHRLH
T1 sequence (Q9NQS5 2-396 R172A): as the sequence (Q9NQS5 2-396 R172K) above, with K171A counted along it
T2 sequence (Q9NQS5 whole entry): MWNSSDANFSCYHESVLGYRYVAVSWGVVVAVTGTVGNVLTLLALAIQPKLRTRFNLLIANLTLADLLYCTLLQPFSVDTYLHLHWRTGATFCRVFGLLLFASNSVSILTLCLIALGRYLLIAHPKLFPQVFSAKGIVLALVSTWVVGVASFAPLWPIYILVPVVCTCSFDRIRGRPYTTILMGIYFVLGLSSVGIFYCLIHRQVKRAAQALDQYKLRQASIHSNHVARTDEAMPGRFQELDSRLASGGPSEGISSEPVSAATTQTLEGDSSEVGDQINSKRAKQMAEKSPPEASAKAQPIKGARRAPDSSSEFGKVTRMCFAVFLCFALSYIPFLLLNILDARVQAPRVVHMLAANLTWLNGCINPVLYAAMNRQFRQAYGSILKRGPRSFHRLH

With `CCCCCCCCCC(=O)O` [C10, decanoic acid], the “agonist response at Arg172Ala mutant” value in data set [1] is “no response”. Also, the “capacity to inhibit forskolin-amplified levels of cAMP, compared among MCFAs of chain length C9-C14” value in data set [2] is “produced the largest effect”. Further, the “agonist response at Arg172Lys mutant” value in data set [3] is “eliminated response”.

As to `c1ccc2c(Cc3c[nH]c4ccccc34)c[nH]c2c1` [DIM, 3,-3′-diindolylmethane], the “agonist response at Arg172Ala mutant” value in data set [1] is given as “retained full activity”. In data set [4] (after oral indole-3-carbinol), the “clearance from plasma” value was “rapidly cleared”. In data set [4] (setting [6]), the “peak plasma level of DIM” value is 500–600 ng/ml and approximately 2 μM; the “time to peak plasma level of DIM” value is at most 2 h. In addition, the “response after pertussis toxin pre-treatment” value in data set [5] is given as “all but eliminated”. Besides, the “agonist response at Arg172Lys mutant” value in data set [3] is listed as “without affecting response”.
